Measurements: patent US20250320205A1, “STAT6 DEGRADERS” (Gilead Sciences, Inc., priority 2024, published 2025)

Molecular target: T1, STAT6 (Homo sapiens, UniProt P42226)
T1 construct: These cells express endogenous STAT6; host or cells: HeLa LgBiT clone 4.14 (CRISPR knock-in of HiBiT into the endogenous STAT6 gene)
T1 sequence (P42226 1-847): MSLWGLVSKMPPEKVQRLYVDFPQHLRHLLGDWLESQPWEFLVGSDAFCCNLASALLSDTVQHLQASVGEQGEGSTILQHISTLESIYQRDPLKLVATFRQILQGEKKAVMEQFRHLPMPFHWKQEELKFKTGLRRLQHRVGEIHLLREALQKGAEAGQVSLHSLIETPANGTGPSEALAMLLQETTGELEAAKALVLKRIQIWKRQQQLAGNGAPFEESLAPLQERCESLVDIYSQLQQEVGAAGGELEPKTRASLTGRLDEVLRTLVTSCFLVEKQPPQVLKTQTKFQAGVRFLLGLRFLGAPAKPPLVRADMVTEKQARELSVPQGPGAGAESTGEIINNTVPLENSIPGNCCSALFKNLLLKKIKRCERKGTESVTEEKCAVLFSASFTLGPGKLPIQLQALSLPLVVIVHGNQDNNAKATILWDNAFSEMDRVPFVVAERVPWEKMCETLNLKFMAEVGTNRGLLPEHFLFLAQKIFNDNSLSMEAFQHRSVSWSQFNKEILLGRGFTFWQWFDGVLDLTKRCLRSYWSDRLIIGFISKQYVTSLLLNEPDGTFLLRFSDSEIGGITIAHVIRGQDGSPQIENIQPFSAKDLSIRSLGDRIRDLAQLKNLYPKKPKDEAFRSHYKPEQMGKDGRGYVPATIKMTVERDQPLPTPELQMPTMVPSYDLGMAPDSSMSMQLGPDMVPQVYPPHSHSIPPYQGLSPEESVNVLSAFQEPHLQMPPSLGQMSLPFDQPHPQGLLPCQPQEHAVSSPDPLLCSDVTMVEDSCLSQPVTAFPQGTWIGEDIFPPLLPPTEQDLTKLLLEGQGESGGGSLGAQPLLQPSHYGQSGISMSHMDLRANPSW
Assay: STAT6 Degrader Assay (HiBiT based, HeLa LgBiT clone 4.14 cells)
Assay type: cell-based
Settings: HeLa; maximal STAT6 degradation
Protocol: This was a HiBit based assay. A HeLa cell line stably transfected with a small protein, LgBit (Large Bit) was obtained from Promega. These cells express endogenous STAT6. A small 11 amino acid gene sequence (HiBiT) was inserted in the STAT6 gene using CRISPR technology. Once STAT6 protein is expressed in the cells, the HiBiT sequence will bind the LgBit in the cells resulting in a functional NanoBiT protein, giving a luminescent tag to STAT6. Single cell clones were prepared and the clone 4.14 was selected for the assay based on that clone showing high luminescence, high STAT6 phosphorylation upon stimulation with IL-4, and inhibition of luminescence when cells were treated with STAT6 siRNA. HeLa LgBiT clone 4.14 cells were suspended in DMEM with 10% FCS, 1% Pen/Strep, Na-pyrovate and Hygromycin B, at a concentration of 1.25*105 cells pr mL. 5000 cells were added pr well of a 384 well plate and 20 nL of compound was added by Echo® liquid handler. NN6394A (terfenadine, a toxic compound) was added to control wells at 50 μM concentration to establish the assay window. In these wells the cells are dead which equals 100% degradation of STAT6. After 4-24 h of incubation at 37° C. under 5% CO2/95% air, 5 μL substrate (Nano-GLO®) was added to the wells and the plates were centrifuged and incubated for 0.5 h. The luminescence in the wells as a measure of non-degraded STAT6 was measured in a plate reader (BMG Pherastar FSX). The measured DC50 (in nM) was determined.

| Emax | SMILES |
| --- | --- |
| < 20% | Cc1cc(C(=O)N2CCC(CN3CCN(c4ncc(NC5CCC(=O)NC5=O)cc4F)CC3)CC2)cc(F)c1C1=CCN([C@@H](C)c2cc3c(-n4ccc5c(c4=O)CCN5)ccnc3n2C)CC1 (stereo partly drawn) [Example 2g49, 3-((5-fluoro-6-(4-((1-(3-fluoro-5-methyl-4-(1-((S)-1-(1-methyl-4-(4-oxo-1,2,3,4-tetrahydro-5H-pyrrolo[3,2-c]pyridin-5-yl)-1H-pyrrolo [2,3-b]pyridin-2-yl)ethyl)-1,2,3,6-tetrahydropyridin-4-yl)benzoyl)piperidin-4-yl)-methyl)piperazin-1-yl)-pyridin-3-yl)amino)piperi-dine-2,6-dione] |
| < 20% | CNc1ccn(-c2ccnc3c2cc(CN2CCC(c4c(C)cc(C(=O)N5CCC(CN6CCN(c7ccc(NC8CCC(=O)NC8=O)cc7F)CC6)CC5)cc4F)CC2)n3C)c(=O)c1 (stereo not drawn) [Example 2g60, 3-((3-fluoro-4-(4-((1-(3-fluoro-5-methyl-4-(1-((1-methyl-4-(4-(methylamino)-2-oxopyridin-1(2H)-yl)-1H-pyrrolo[2,3-b]pyridin-2-yl)-methyl)piperidin-4-yl)benzo-yl)piperidin-4-yl)methyl)-piperazin-1-yl)phenyl)amino)-piperidine-2,6-dione] |
| 30 to 40% | COc1cc(N2CCN(CC3CCN(C(=O)c4cc(C)c(C5=CCN([C@@H](C)c6cc7c(-n8cc(F)c9c(c8=O)CCN9)ccnc7n6C)CC5)c(F)c4)CC3)CC2)ccc1NC1CCC(=O)NC1=O (stereo partly drawn) [Example 2g130, 3-((4-(4-((1-(3-fluoro-4-(1-((S)-1-(4-(7-fluoro-4-oxo-1,2,3,4-tetrahydro-5H-pyr-rolo-[3,2-c]pyridin-5-yl)-1-methyl-1H-pyrrolo[2,3-b]pyridin-2-yl)ethyl)-1,2,3,6-tetrahydropyridin-4-yl)-5-methylbenzoyl)piperidin-4-yl)methyl)piperazin-1-yl)-2-methoxyphenyl)amino)piper-idine-2,6-dione] |
| 50 to 60% | C[C@@H](c1cc2c(-n3cc(F)c4c(c3=O)CCN4)ccnc2n1C)N1CC=C(c2c(F)cc(C(=O)N3CCC(CN4CCN(c5ccc(NC6CCC(=O)NC6=O)cc5F)CC4)CC3)cc2F)CC1 (stereo partly drawn) [Example 2g131, 3-((4-(4-((1-(3,5-difluoro-4-(1-((S)-1-(4-(7-fluoro-4-oxo-1,2,3,4-tetrahydro-5H-pyrrolo [3,2-c]pyridin-5-yl)-1-methyl-1H-pyrrolo[2,3-b]pyridin-2-yl)ethyl)-1,2,3,6-tetrahydro-pyridin-4-yl)benzoyl)piper-idin-4-yl)methyl)piperazin-1-yl)-3-fluorophenyl)amino)-piperidine-2,6-dione] |
| 40 to 50% | CNc1ccn(-c2ccnc3c2cc(CN2CCC(c4c(C)cc(C(=O)N5CCN(C(=O)CN6CCN(c7ccc(NC8CCC(=O)NC8=O)cc7F)CC6)CC5)cc4F)CC2)n3C)c(=O)c1 (stereo not drawn) [Example 2g132, 3-((3-fluoro-4-(4-(2-(4-(3-fluoro-5-methyl-4-(1-((1-methyl-4-(4-(methylamino)-2-oxopyridin-1(2H)-yl)-1H-pyrrolo[2,3-b]pyridin-2-yl)-methyl)piperidin-4-yl)benzo-yl)piperazin-1-yl)-2-oxo-ethyl)piperazin-1-yl)phenyl)-amino)piperidine-2,6-dione] |

Same assay, conditions: geometric mean across assay runs and compound batches; DC50 provided for test compounds with >80% Emax; read-out: STAT6 degradation DC50

| DC50 | SMILES |
| --- | --- |
| 3.3 nM | Cc1cc(C(=O)N2CCC(CN3CCN(c4ccc(NC5CCC(=O)NC5=O)cc4F)C[C@H]3C)CC2)cc(F)c1C1=CCN([C@@H](C)c2cc3c(-n4ccc5c(c4=O)CCN5)ccnc3n2C)CC1 (stereo partly drawn) [Example 2g22, 3-((3-fluoro-4-((R)-4-((1-(3-fluoro-5-methyl-4-(1-((S)-1-(1-methyl-4-(4-oxo-1,2,3,4-tetrahydro-5H-pyrrolo[3,2-c]pyridin-5-yl)-1H-pyrrolo[2,3-b]pyridin-2-yl)ethyl)-1,2,3,6-tetrahydro-pyridin-4-yl)-benzoyl)piperidin-4-yl)meth-yl)-3-methylpiperazin-1-yl)-phenyl)amino)piperidine-2,6-dione] |
| 4.2 nM | CNc1cc(=O)n(-c2ccnc3c2cc([C@H](C)N2CC=C(c4c(C)cc(C(=O)N5CCC(CN6CCN(c7ccc(NC8CCC(=O)NC8=O)cc7F)C[C@H]6C)CC5)cc4F)CC2)n3C)cc1F (stereo partly drawn) [Example 2g27, 3-((3-fluoro-4-((R)-4-((1-(3-fluoro-4-(1-((S)-1-(4-(5-fluoro-4-(methylamino)-2-oxopyridin-1(2H)-yl)-1-meth-yl-1H-pyrrolo[2,3-b]pyridin-2-yl)ethyl)-1,2,3,6-tetrahydro-pyridin-4-yl)-5-methylbenz-oyl)piperidin-4-yl)methyl)-3-methylpiperazin-1-yl)phenyl)-amino)piperidine-2,6-dione] |
| 2.6 nM | COc1cc(C2CCN(Cc3cc4n(n3)CCN(C(=O)c3ccc(C5CCN([C@@H](C)c6cc7c(-n8ccc9c(c8=O)CCN9)ccnc7n6C)CC5)cc3)C4)CC2)ccc1NC1CCC(=O)NC1=O (stereo partly drawn) [Example 2g30, 3-((2-methoxy-4-(1-((5-(4-(1-((S)-1-(1-methyl-4-(4-oxo-1,2,3,4-tetrahydro-5H-pyrrolo [3,2-c]pyridin-5-yl)-1H-pyrrolo[2,3-b]pyridin-2-yl)-ethyl)piperidin-4-yl)benzoyl)-4,5,6,7-tetrahydropyrazolo [1,5-a]pyrazin-2-yl)methyl)-piperidin-4-yl)phenyl)amino)-piperidine-2,6-dione] |
| 35.7 nM | Cc1cc(C(=O)N2CCC(CN3CCN(c4ccc(NC5CCC(=O)NC5=O)cc4F)CC3)CC2)cc(F)c1C1CCN(Cc2cc3c(-n4ccc5c(c4=O)CCN5)ccnc3n2C)CC1 (stereo not drawn) [Example 2g36, 3-((3-fluoro-4-(4-((1-(3-fluoro-5-methyl-4-(1-((1-methyl-4-(4-oxo-1,2,3,4-tetrahydro-5H-pyrrolo[3,2-c]pyridin-5-yl)-1H-pyrrolo[2,3-b]pyridin-2-yl)methyl)piperi-din-4-yl)benzoyl)piperidin-4-yl)methyl)piperazin-1-yl)-phenyl)amino)piperidine-2,6-dione] |
| 1.8 nM | CNc1ccn(-c2ccnc3c2cc([C@H](C)N2CC=C(c4c(C)cc(C(=O)N5CCC(CN6CCN(c7ccc(NC8CCC(=O)NC8=O)cc7F)CC6)CC5)cc4F)CC2)n3C)c(=O)c1 (stereo partly drawn) [Example 2g37, 3-((3-fluoro-4-(4-((1-(3-fluoro-5-methyl-4-(1-((S)-1-(1-methyl-4-(4-(methyl-amino)-2-oxopyridin-1(2H)-yl)-1H-pyrrolo[2,3-b]pyridin-2-yl)ethyl)-1,2,3,6-tetrahydro-pyridin-4-yl)benzoyl)piperi-din-4-yl)methyl)piperazin-1-yl)phenyl)amino)piperidine-2,6-dione] |
| 3.1 nM | CNc1ccn(-c2ccnc3c2cc([C@H](C)N2CC=C(c4c(C)cc(C(=O)N5CCC(CN6CCN(c7ccc(NC8CCC(=O)NC8=O)cc7F)C[C@H]6C)CC5)cc4F)CC2)n3C)c(=O)c1 (stereo partly drawn) [Example 2g46, 3-((3-fluoro-4-((R)-4-((1-(3-fluoro-5-methyl-4-(1-((S)-1-(1-methyl-4-(4-(methyl-amino)-2-oxopyridin-1(2H)-yl)-1H-pyrrolo[2,3-b]pyridin-2-yl)ethyl)-1,2,3,6-tetrahydro-pyridin-4-yl)benzoyl)piperi-din-4-yl)methyl)-3-methyl-piperazin-1-yl)phenyl)amino)-piperidine-2,6-dione] |
| 7.3 nM | CNc1ccn(-c2ccnc3c2cc(CN2CC=C(c4c(C)cc(C(=O)N5CCC(CN6CCN(c7ccc(NC8CCC(=O)NC8=O)cc7F)CC6)CC5)cc4F)CC2)n3C)c(=O)c1 (stereo not drawn) [Example 2g54, 3-((3-fluoro-4-(4-((1-(3-fluoro-5-methyl-4-(1-((1-methyl-4-(4-(methylamino)-2-oxopyridin-1(2H)-yl)-1H-pyrrolo[2,3-b]pyridin-2-yl)-methyl)-1,2,3,6-tetrahydro-pyridin-4-yl)benzoyl)piperi-din-4-yl)methyl)piperazin-1-yl)phenyl)amino)piperidine-2,6-dione] |
